Source: ChEMBL document CHEMBL2074073, “The organic cation transporter OCT2 mediates the uptake of beta-adrenoceptor antagonists across the apical membrane of renal LLC-PK(1) cell monolayers” (Br J Pharmacol, 2000)

Legend:
Format in all cases: functional, cell-based
[1] = biological target: T1, Solute carrier family 22 member 2 (Homo sapiens, UniProt O15244); test: (§1) TP_TRANSPORTER: uptake in OCT2-expressing mIMCD3 cells; settings: mouse
T1 sequence (O15244 whole entry): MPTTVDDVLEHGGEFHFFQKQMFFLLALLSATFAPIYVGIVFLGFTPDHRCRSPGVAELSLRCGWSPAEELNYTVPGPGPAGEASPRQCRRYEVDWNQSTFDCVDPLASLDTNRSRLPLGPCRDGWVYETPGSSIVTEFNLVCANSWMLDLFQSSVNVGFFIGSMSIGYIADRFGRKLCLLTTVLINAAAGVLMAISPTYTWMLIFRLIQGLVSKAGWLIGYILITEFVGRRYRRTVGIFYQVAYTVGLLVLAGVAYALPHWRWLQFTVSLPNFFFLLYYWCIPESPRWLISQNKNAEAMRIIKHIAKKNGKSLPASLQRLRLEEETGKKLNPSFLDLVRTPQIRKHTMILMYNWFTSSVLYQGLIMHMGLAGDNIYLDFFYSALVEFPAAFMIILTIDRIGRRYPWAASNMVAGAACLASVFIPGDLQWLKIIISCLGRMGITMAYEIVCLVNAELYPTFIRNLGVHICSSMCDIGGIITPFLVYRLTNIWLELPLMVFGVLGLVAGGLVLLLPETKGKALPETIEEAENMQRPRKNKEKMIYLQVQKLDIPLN

[2] = biological target: T1, Solute carrier family 22 member 2; test: TP_TRANSPORTER: inhibition of cimetidine uptake (Cimetidine: 100 uM, Propranolol: 1000 uM) in OCT2-expressing mIMCD3 cells; settings: mouse, mimcd3, 1000 µM
[3] = biological target: T1, Solute carrier family 22 member 2; test: TP_TRANSPORTER: inhibition of cimetidine uptake (Cimetidine: 100 uM, Metoprolol: 1000 uM) in OCT2-expressing mIMCD3 cells; settings: mouse, mimcd3, 1000 µM
[4] = substrate: C[n+]1ccc(-c2ccccc2)cc1; test: as §1

Q: With `CC(C)NCC(O)COc1cccc2ccccc12` (stereo not given) [PROPRANOLOL] as the molecule, how does the Activity [1] read?
A: substrate [+]

Q: And the Activity [2]?
A: inhibitor [(at a rough estimate) 10 % of control]

Q: How did the Activity [3] turn out when `COCCc1ccc(OCC(O)CNC(C)C)cc1` (stereo not given) [METOPROLOL] was run?
A: inhibitor [(at a rough estimate) 30 % of control]

Q: `CN/C(=N/CCSCc1nc[nH]c1C)NC#N` [CIMETIDINE] was tested. Which Activity [1] did it give?
A: substrate [+]

B1: Solute carrier family 22 member 2 (Homo sapiens) (protein)
chain: MPTTVDDVLEHGGEFHFFQKQMFFLLALLSATFAPIYVGIVFLGFTPDHRCRSPGVAELSLRCGWSPAEELNYTVPGPGPAGEASPRQCRRYEVDWNQSTFDCVDPLASLDTNRSRLPLGPCRDGWVYETPGSSIVTEFNLVCANSWMLDLFQSSVNVGFFIGSMSIGYIADRFGRKLCLLTTVLINAAAGVLMAISPTYTWMLIFRLIQGLVSKAGWLIGYILITEFVGRRYRRTVGIFYQVAYTVGLLVLAGVAYALPHWRWLQFTVSLPNFFFLLYYWCIPESPRWLISQNKNAEAMRIIKHIAKKNGKSLPASLQRLRLEEETGKKLNPSFLDLVRTPQIRKHTMILMYNWFTSSVLYQGLIMHMGLAGDNIYLDFFYSALVEFPAAFMIILTIDRIGRRYPWAASNMVAGAACLASVFIPGDLQWLKIIISCLGRMGITMAYEIVCLVNAELYPTFIRNLGVHICSSMCDIGGIITPFLVYRLTNIWLELPLMVFGVLGLVAGGLVLLLPETKGKALPETIEEAENMQRPRKNKEKMIYLQVQKLDIPLN
Q: Which Km [4] does the source give for B1 here?
A: 22.2 µM
